Results reported in PMC10057996, “A Comparative Study of the Inhibitory Action of Berberine Derivatives on the Recombinant Protein FtsZ of E. coli” (International Journal of Molecular Sciences, 2023).
Structures can show the parent of a compound that is named as a salt.

Key:
[1] = target: T1, FtsZ (Escherichia coli, UniProt P0A9A6); assay: Fluorescence binding assay (quenching of compound fluorescence by FtsZ); parameters: species or system E. coli; conditions: dissociation constant Kd, excitation 295 nm, emission 327 nm, 20 °C
T1 construct: made in house; host or cells: E. coli
Protocol: Therefore, the intrinsic fluorescence of compound 1c was monitored at increasing concentrations of recombinant FtsZ. The sample was excited at 295 nm, and the fluorescence emission of the compound 1c was recorded.
A 1.5 mL solution containing the 1c compound was titrated by successive additions of FtsZ protein (from 0.010 to 0.120 µM). Titrations were done manually, and fluorescence spectra were measured in the range of 280–500 nm at the excitation wavelength of 295 nm. The fluorescence spectra were recorded using a Horiba Scientific Fluoromax-4 spectrofluorometer, using a quartz cell with an optical path of 1 cm, under controlled temperature conditions (Peltier control system at 20 °C). All experiments were carried out in duplicate. The change in the fluorescence intensity of the reaction set was fitted into the “one site-specific binding” equation of GraphPad Prism 8 (GraphPad Software, San Diego, CA, USA).
Figure 6 Fluorescence binding assay of compound 1c with FtsZ. (a) Emission fluorescence spectra at different concentrations of FtsZ. (b) ΔF at 325 nm vs FtsZ concentration. Experimental data were adjusted to a non-linear regression, and the Kd binding constant was estimated using GraphPad Prism 8. The experiments were performed in duplicate, and the standard deviation is reported as error bars.

[2] = target: T1, FtsZ; assay: FtsZ GTPase assay (BIOMOL Green, Pi release); type: biochemical, E. coli; conditions: for inhibition mechanism on FtsZ GTPase activity: from KM and Vmax changes at 40 µM compound; for Vmax (Pi Released/min): in presence of 40 µM compound, 6 µM FtsZ, pH 6.8, untreated 0.63 ± 0.01
Protocol: The functional effect of the berberine analogues 1c,d,f,i, and 1-2g,h on FtsZ was investigated by enzymatic assays. A recombinant form of FtsZ was produced in E. coli, purified according to [21], and used for binding assays. The GTPase activity of the FtsZ protein was assayed in the presence of the berberine-related compounds at 40 μM concentration and was monitored in comparison with the untreated protein at different GTP concentrations. The kinetic parameters were calculated according to the Michaelis–Menten equation using GraphPad Prism 8 for all the berberine-related compounds. The software returned KM (μM) and Vmax (Pi released/min) kinetic parameters that indicated the mechanism of inhibition exerted by each compound.
The determination of the inhibition constant Ki for these compounds was performed to further investigate the mode of inhibition and clarified the potency of the competitive inhibitors. The Ki values were calculated performing kinetic analyses at different concentrations of competitive inhibitors (20 μM, 40 μM, and 60 μM).
The FtsZ GTPase assay was performed using 6 μM FtsZ in reaction buffer 25 mM PIPES/NaOH, pH 6.8. The mixture containing FtsZ was incubated for 30 min at 30 °C, and different concentrations of GTP (from 0 µM to 500 µM) were added for a reaction time of 10 min, either in the absence or in the presence of 40 µM 1c, 1d, 1f, 1i, 1g, 1h, 2g, and 2h. The reaction was performed for 10 min and stopped by the addition of 100 µL BIOMOL Green reagent. The amount of Pi released during the assembly of FtsZ was monitored using BIOMOL Green phosphate reagent (Biomol, Milan, Italy) after incubation at 25 °C for 25 min by measuring the absorbance at 620 nm. The negative control (without enzyme) was subtracted from all the readings. The experiment was performed in duplicate. The data were elaborated in order to report U/mg VS substrate concentration, and kinetic parameters were fitted by nonlinear regression with GraphPad Prism 8 (GraphPad Software, San Diego, CA, USA). The inhibition constant (Ki) for all competitive inhibitors was calculated performing different kinetic analyses in the presence of 20, 40, and 60 µM of compounds and using the following equation: Ki=I/α−1 where α=KMapp/KM

[3] = target: T1, FtsZ; assay: TEM microscopy of FtsZ protofilaments; type: biochemical, E. coli; conditions: 60 µM compound, 150 µM GTP
Protocol: The capability of berberine analogue 1i to inhibit FtsZ polymerization was also assessed by TEM microscopy, by analysing the FtsZ protofilaments of in the presence of 60 µM 1i in comparison with the untreated sample.
FtsZ polymerization reaction solutions were diluted 1:10 in polymerization buffer in the presence and in the absence of 60 µM 1c and 1i. Then, 5 µL drops of the samples for TEM analysis were placed on a carbon-coated copper TEM grid for 20 min. Excess solution was wicked away with filter paper. Negative staining with 1% phosphotungstic acid (PTA) solution at pH 7.0 was carried out by depositing a drop of PTA solution on the grid for 1 min and then blotted dry with filter paper. The grid was allowed to dry, and images were collected using a FEI TECNAI G2 S-twin apparatus operating at 120 kV (LaB6 source).
Figure 4 Transmission electron microscopic images of FtsZ in the absence (a) and in the presence of 1i inhibitors (b). The protofilaments are seen to be polymerized in an organized manner in the absence of inhibitor (a). 1i at 60 μM concentrations inhibit the FtsZ polymerization. Experimental conditions for all the FtsZ polymerization studies were […], PIPES 25 mM pH 6.8, KCl 50 mM, and 150 µM GTP.

[4] = target: T1, FtsZ; assay: FtsZ polymerization assay by sedimentation, SDS-PAGE densitometry; type: biochemical, E. coli; conditions: inhibitor concentration 60 µM, 150 µM GTP
Protocol: Inhibition of the GTPase activity of FtsZ might prevent the polymerization of the protein, which is well known to occur in the presence of GTP. We then investigated the effect of berberine analogues on the polymerization of FtsZ. The recombinant protein was incubated with 150 µM GTP in the absence and in the presence of increasing concentrations of berberine-related compounds. The FtsZ filaments were purified by centrifugation, analysed by SDS-PAGE, and the amount of polymerized protein was determined by densitometric analysis of the corresponding Coomassie-stained gel bands.
Assays for FtsZ polymerization by sedimentation were performed by incubating 6 μM FtsZ with 150 µM GTP in 25 mM PIPES/NaOH, pH 6.8 for 60 min at 25 °C. The assays were carried out in the presence and in the absence of 20 μM, 40 μM, and 60 μM of berberine analogues. The reaction mixtures were centrifuged for 60 min at 14,000 rpm, the pellets were run on 12.5% sodium dodecyl sulphate (SDS)-polyacrylamide gels, and stained by Coomassie blue. Subsequently, the images of the gels were acquired by ChemiDocTM, and the relative amount of FtsZ in the bands was determined densitometrically using the Quantity One software.
Figure 3 Polymerization assay of recombinant FtsZ (6 µM) was carried out in 25 mM PIPES/NaOH, pH 6.8, and 150 µM of GTP in the presence of berberine analogues. […]

[5] = tested on: E. coli; assay: Minimum inhibitory concentration determination; type: cell-based; conditions: Escherichia coli, 24 h, read-out: MIC E. coli
Protocol: Finally, we evaluated the in vitro antimicrobial activity of the newly synthesized berberine analogues (2g,h) on E. coli strain. The Minimal Inhibitory Concentrations (MICs) of both compounds were determined as the lowest concentration showing no visible growth after 24 h of incubation. The MIC values for 2g and 2h are reported in Table 4, together with the most interesting compounds previously reported.
In brief, the bacterial strain was incubated overnight in LB at 37 °C. The cultures were diluted approximately to 5 × 10^5 CFU/mL, and 50 μL of bacterial suspension was added to ten wells and incubated with serial dilutions of berberine analogues from an initial concentration of 500 µM. The sterility control well contained 100 μL of LB, while the growth control well contained 100 μL of microbial suspension. […] All determinations of all assays were performed in triplicate.

T1 sequence (P0A9A6 whole entry): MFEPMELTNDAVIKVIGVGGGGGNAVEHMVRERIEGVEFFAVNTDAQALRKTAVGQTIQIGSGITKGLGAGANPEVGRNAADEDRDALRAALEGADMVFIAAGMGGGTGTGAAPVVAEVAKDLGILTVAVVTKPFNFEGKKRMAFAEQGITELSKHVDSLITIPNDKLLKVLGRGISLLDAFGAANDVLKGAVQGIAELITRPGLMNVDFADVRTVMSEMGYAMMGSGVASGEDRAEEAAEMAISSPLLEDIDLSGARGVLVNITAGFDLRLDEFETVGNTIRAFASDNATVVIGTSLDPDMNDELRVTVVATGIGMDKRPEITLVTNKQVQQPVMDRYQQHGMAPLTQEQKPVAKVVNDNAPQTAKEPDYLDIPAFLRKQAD

| Structure (SMILES) | Kd [1] [µM] | Ki [2] [µM] | inhibition mechanism on FtsZ GTPase activity [2] | Vmax (Pi Released/min) [2] [Pi released/min] | FtsZ protofilaments observed by TEM [3] | amount of polymerized FtsZ [4] | MIC [5] [µM] | melting point [°C] |
| --- | --- | --- | --- | --- | --- | --- | --- | --- |
| COc1cccc(CN(C)CCc2ccc3c(c2)OCO3)c1OC [1c] | 0.0266 | 25 | classical competitive inhibition mechanism | 0.54 ± 0.03 | – | – | – | – |
| CCN(CCc1ccc2c(c1)OCO2)Cc1cccc(OC)c1OC [1d] | – | 44 | classical competitive inhibition mechanism | 0.58 ± 0.01 | – | – | – | – |
| CCCCCCN(CCc1ccc2c(c1)OCO2)Cc1cccc(OC)c1OC [1f] | – | – | non-competitive inhibition mechanism | 0.35 ± 0.01 | – | – | – | – |
| Clc1ccc(CNCCc2ccc3c(c2)OCO3)cc1 [1g] | – | 41 | classical competitive inhibition mechanism | 0.60 ± 0.02 | – | – | – | – |
| c1ccc2c(CNCCc3ccc4c(c3)OCO4)cccc2c1 [1h] | – | 119 | classical competitive inhibition mechanism | 0.59 ± 0.01 | – | – | – | – |
| O=[N+]([O-])c1ccccc1CNCCc1ccc2c(c1)OCO2 [1i] | – | – | non-competitive inhibition mechanism | – | no protofilaments could be observed | almost negligible | – | – |
| CN(CCc1ccc2c(c1)OCO2)Cc1ccc(Cl)cc1 [2g, 2-(1,3-Benzodioxol-5-yl)-N-[(4-chlorobenzyl]-N-methylethan-1-amine hydrochloride] | – | – | acompetitive inhibitory mechanism | – | – | – | 128 | – |
| CN(CCc1ccc2c(c1)OCO2)Cc1cccc2ccccc12.Cl [2h, 2-(2H-1,3-Benzodioxol-5-yl)-N-methyl-N-[(naphthalen-1-yl)methyl]ethan-1-amine hydrochloride] | – | 51 | classical competitive inhibition mechanism | 0.58 ± 0.01 | – | – | > 512 | 188 to 190 |
